This note sets out measurements from patent US20230091225A1, “Bifunctional chimeric heterocyclic compounds for targeted degradation of androgen receptors and use thereof” (HINOVA PHARMACEUTICALS INC., priority 2019, published 2023).

Structures are written as SMILES.

Usually inhibition stands for the share of the control response that was lost under treatment. A low value points to a weak effect.

The experiment deals with T1, androgen receptor (AR) (Homo sapiens, UniProt P10275).
T1 sequence (P10275 1-920): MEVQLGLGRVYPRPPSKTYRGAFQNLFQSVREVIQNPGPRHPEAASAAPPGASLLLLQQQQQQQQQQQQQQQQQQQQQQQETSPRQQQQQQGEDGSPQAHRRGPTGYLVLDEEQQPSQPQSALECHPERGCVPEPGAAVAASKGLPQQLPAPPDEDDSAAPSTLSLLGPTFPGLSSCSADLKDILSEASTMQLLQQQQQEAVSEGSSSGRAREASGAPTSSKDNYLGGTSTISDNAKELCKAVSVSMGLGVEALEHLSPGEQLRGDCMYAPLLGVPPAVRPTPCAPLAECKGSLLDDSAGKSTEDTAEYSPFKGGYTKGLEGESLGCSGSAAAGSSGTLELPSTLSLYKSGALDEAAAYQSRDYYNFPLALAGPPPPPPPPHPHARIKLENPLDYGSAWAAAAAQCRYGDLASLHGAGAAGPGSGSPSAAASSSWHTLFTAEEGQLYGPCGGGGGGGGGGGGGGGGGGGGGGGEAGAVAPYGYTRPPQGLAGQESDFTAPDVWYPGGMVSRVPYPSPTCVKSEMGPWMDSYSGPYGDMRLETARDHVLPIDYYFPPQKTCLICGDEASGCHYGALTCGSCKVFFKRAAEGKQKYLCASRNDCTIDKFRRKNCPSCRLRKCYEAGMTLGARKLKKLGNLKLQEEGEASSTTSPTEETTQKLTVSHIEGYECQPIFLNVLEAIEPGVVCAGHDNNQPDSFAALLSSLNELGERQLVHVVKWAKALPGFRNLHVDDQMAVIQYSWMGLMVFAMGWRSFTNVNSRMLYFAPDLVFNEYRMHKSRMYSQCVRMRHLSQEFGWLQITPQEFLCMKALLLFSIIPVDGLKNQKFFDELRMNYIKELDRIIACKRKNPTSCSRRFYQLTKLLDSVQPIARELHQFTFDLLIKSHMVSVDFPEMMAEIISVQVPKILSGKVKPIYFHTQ
The experiment is described as follows: Degradation of androgen receptor (AR) protein in VCaP cells by Western blot. As to conditions: percentage of degraded AR at 100 nM, VCaP cells, 16 h. The format is cell-based. Summed up: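 AR and β-actin levels were read by Western blot with ECL detection, loading 30 μg lysate protein per well. Before lysis, VCaP cells seeded at 5×10^5/well and grown overnight were exposed to compound for 16 h, two wells per concentration, keeping DMSO at 0.1%.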
Background: In western blotting, separated proteins are transferred to a membrane and probed.

`CC1(C)[C@H](Oc2ccc(C#N)c(Cl)c2)C(C)(C)[C@H]1N1Cc2nc(C#CC3CCN(C4CCN(c5cc6c(cc5F)C(=O)N(C5CCC(=O)NC5=O)C6=O)CC4)CC3)ccc2C1=O` (stereo partly shown) [Compound 316]: the inhibition at 0.1 µM was in the range of 25 to 49%.
Take `N#Cc1ccc(O[C@H]2CC[C@H](NC(=O)c3ccc(N4CCC(NC5CCN(c6ccc7c(c6)C(=O)N(C6CCC(=O)NC6=O)C7=O)CC5)CC4)cc3)CC2)cc1Cl` (stereo partly shown) [Compound 302, N-((1r,4r)-4-(3-chloro-4-cyanophenoxy)cyclohexyl)-4-(4-((1-(2-(2,6-dioxopiperidin-3-yl)-1,3-dioxoisoindolin-5-yl)piperidine-4-yl)amino)piperidin-1-yl)benzamide]: the inhibition at 0.1 µM was under 25%.
Turning to `N#Cc1ccc(O[C@H]2CC[C@H](NC(=O)c3ccc(N4CCC(CN5CCCN(c6ccc7c(c6)C(=O)N(C6CCC(=O)NC6=O)C7=O)CC5)CC4)cc3)CC2)cc1Cl` (stereo partly drawn) [Compound 58, N-((1R,4R)-4-(3-chloro-4-cyanophenoxy)cyclohexyl)-4-(4-((4-(2-(2,6-dioxopiperidin-3-yl)-1,3-dioxoisoindolin-5-yl)-1,4-diazepan-1-yl)methyl)piperidin-1-yl)benzamide], the inhibition at 0.1 µM was in the range of 25 to 49%.
In turn, `N#Cc1ccc(O[C@H]2CC[C@H](NC(=O)c3ccc(N4CCC(CN5CC6CN(c7ccc8c(c7)C(=O)N(C7CCC(=O)NC7=O)C8=O)CC6C5)CC4)nn3)CC2)cc1Cl` (stereo partly shown) [Compound 252, N-((1r,4r)-4-(3-chloro-4-cyanophenoxy)cyclohexyl)-6-(4-((5-(2-(2,6-dioxopiperidin-3-yl)-1,3-dioxoisoindolin-5-yl)Hexahydropyrrolo[3,4-c]pyrrol-2(11H)-yl)methyl)piperidin-1-yl)pyridazine-3-formamide] yielded an inhibition at 0.1 µM of 25 to 49%.
The same measure, in the same setting: for `N#Cc1ccc(O[C@H]2CC[C@H](NC(=O)c3ccc(N4CCC(CN5CC6(CCN(c7cc8c(cc7F)C(=O)N(C7CCC(=O)NC7=O)C8=O)C6)C5)CC4)nn3)CC2)cc1Cl` (stereo partly shown) [Compound 180, N-((1r,4r)-4-(3-chloro-4-cyanophenoxy)cyclohexyl)-6-(4-((6-(2-(2,6-dioxopiperidin-3-yl)-6-fluoro-1,3-dioxoisoindolin-5-yl)-2,6-diazaspiro[3.4]octan-2-yl)methyl)piperidin-1-yl)pyridazine-3-formamide] the value was over 80%; for `CC1(C)[C@H](Oc2ccc(C#N)c(Cl)c2)C(C)(C)[C@H]1N1Cc2nc(C#CC3CCN(CC4CN(c5cc6c(cc5F)C(=O)N(C5CCC(=O)NC5=O)C6=O)C4)CC3)ccc2C1=O` (stereo partly shown) [Compound 334], over 80%; for `N#Cc1ccc(O[C@H]2CC[C@H](NC(=O)c3ccc(N4CCC5(CC4)CN(C4CCN(c6ccc7c(c6)C(=O)N(C6CCC(=O)NC6=O)C7=O)CC4)C5)nn3)CC2)cc1Cl` (stereo partly shown) [Compound 74], over 80%.
The same measure, in the same setting: for `N#Cc1ccc(O[C@H]2CC[C@H](NC(=O)c3ccc(N4CCC(NC5CCN(c6ccc7c(c6)C(=O)N(C6CCC(=O)NC6=O)C7=O)CC5)CC4)nn3)CC2)cc1Cl` (stereo partly shown) [Compound 118, N-((1r,4r)-4-(3-chloro-4-cyanophenoxy)cyclohexyl)-6-(4-((1-(2-(2,6-dioxopiperidin-3-yl)-1,3-dioxoisoindolin-5-yl)piperidine-4-yl)amino)piperidin-1-yl)pyridazine-3-amide] the value was 25 to 49%; for `CC1(C)[C@H](Oc2ccc(C#N)c(Cl)c2)C(C)(C)[C@H]1N1Cc2nc(C#CC3CC(NC4CCN(c5cc6c(cc5F)C(=O)N(C5CCC(=O)NC5=O)C6=O)CC4)C3)ccc2C1=O` (stereo partly shown) [Compound 329], 50 to 79%; for `N#Cc1ccc(O[C@H]2CC[C@H](NC(=O)c3cnc(N4CCC(N5CC6(CCN(c7ccc8c(c7)C(=O)N(C7CCC(=O)NC7=O)C8=O)CC6)C5)CC4)cn3)CC2)cc1Cl` (stereo partly shown) [Compound 229, N-((1r,4r)-4-(3-chloro-4-cyanophenoxy)cyclohexyl)-5-(4-(7-(2-(2,6-dioxopiperidin-3-yl)-1,3-dioxoisoindolin-5-yl)-2,7-diazaspiro[3.5]nonan-2-yl)piperidin-1-yl)pyrazine-2-carboxamide], over 80%.
On the same count and under the same terms, to `N#Cc1ccc(O[C@H]2CC[C@H](NC(=O)c3cnc(N4CC5CN(C6CCN(c7ccc8c(c7)C(=O)N(C7CCC(=O)NC7=O)C8=O)CC6)CC5C4)cn3)CC2)cc1Cl` (stereo partly shown) [Compound 69, N-((1r,4r)-4-(3-chloro-4-cyanophenoxy)cyclohexyl)-5-(5-(1-(2-(2,6-dioxopiperidin-3-yl)-1,3-dioxoisoindolin-5-yl)piperidine-4-yl)hexahydropyrrolo[3,4-c]pyrrol-2(1H)-yl)pyrazine-2-carboxamide] belongs under 25%.
For `N#Cc1ccc(O[C@H]2CC[C@H](NC(=O)c3ccc(N4CCC(N5CC6CN(c7ccc8c(c7)C(=O)N(C7CCC(=O)NC7=O)C8=O)CC6C5)CC4)nn3)CC2)cc1Cl` (stereo partly shown) [Compound 62, N-((1r,4r)-4-(3-chloro-4-cyanophenoxy)cyclohexyl)-6-(4-(5-(2-(2,6-dioxopiperidin-3-yl)-1,3-dioxoisoindolin-5-yl)hexahydropyrrolo[3,4-c]pyrrol-2(1H)-yl)piperidin-1-yl)pyridazine-3-carboxamide], the inhibition at 0.1 µM lay within 50 to 79%.
Molecule `N#Cc1ccc(O[C@H]2CC[C@H](NC(=O)c3ccc(N4CCC(N5CC6(CCN(c7cc8c(cc7F)C(=O)N(C7CCC(=O)NC7=O)C8=O)C6)C5)CC4)nn3)CC2)cc1Cl` (stereo partly shown) [Compound 103, N-((1r,4r)-4-(3-chloro-4-cyanophenoxy)cyclohexyl)-6-(4-(6-(2-(2,6-dioxopiperidin-3-yl)-6-fluoro-1,3-dioxoisoindolin-5-yl)-2,6-diazaspiro[3.4]octane-2-yl)piperidin-1-yl)pyridazine-3-formamide] came in with an inhibition at 0.1 µM of over 80%.
In the case of `N#Cc1ccc(O[C@H]2CC[C@H](NC(=O)c3ccc(N4CC5(CCN(CC6CCN(c7cc8c(cc7F)C(=O)N(C7CCC(=O)NC7=O)C8=O)CC6)CC5)C4)nn3)CC2)cc1Cl` (stereo partly shown) [Compound 232], the inhibition at 0.1 µM was over 80%.
The molecule `N#Cc1ccc(O[C@H]2CC[C@H](NC(=O)c3ccc(N4CC5CN(CC6CCN(c7cc8c(cc7F)C(=O)N(C7CCC(=O)NC7=O)C8=O)CC6)CC5C4)nn3)CC2)cc1Cl` (stereo partly shown) [Compound 259, N-((1r,4r)-4-(3-chloro-4-cyanophenoxy)cyclohexyl)-6-(5-((1-(2-(2,6-dioxopiperidin-3-yl)-6-fluoro-1,3-dioxoisoindolin-5-yl)piperidine-4-yl)methyl)hexahydropyrrolo[3,4-c]pyrrol-2(11H)-yl)pyridazine-3-carboxamide] displayed an inhibition at 0.1 µM of over 80%.
Turning to `N#Cc1ccc(O[C@H]2CC[C@H](N3Cc4nc(C#CC5CCN(C6CCN(c7cc8c(cc7F)C(=O)N(C7CCC(=O)NC7=O)C8=O)CC6)CC5)ccc4C3=O)CC2)cc1Cl` (stereo partly shown) [Compound 324, 2-Chloro-4-((1r,4r)-4-(2-((1′-(2,6-dioxopiperidin-3-yl)-6-fluoro-1,3-dioxoisoindolin-5-yl)-1,4′-dipiperidine-4-yl)ethynyl)-5-oxo-5H-pyrrolo[3,4-b]pyridin-6(7H)-cyclohexaneoxy)benzonitrile], the inhibition at 0.1 µM was 25 to 49%.
Same read-out and setting: to `N#Cc1ccc(O[C@H]2CC[C@H](NC(=O)c3ccc(N4CC5CN(C[C@@H]6[C@H]7CN(c8ccc9c(c8)C(=O)N(C8CCC(=O)NC8=O)C9=O)C[C@@H]67)CC5C4)nn3)CC2)cc1Cl` (stereo partly shown) [Compound 100] belongs 50 to 79%.
`N#Cc1ccc(O[C@H]2CC[C@@H](NC(=O)c3cnc(N4CCN([C@@H]5C[C@@H]6CN(c7cc8c(cc7F)C(=O)N(C7CCC(=O)NC7=O)C8=O)C[C@@H]6C5)CC4)cn3)CC2)cc1Cl` (stereo partly drawn) [Compound 295, N-((1s,4s)-4-(3-chloro-4-cyanophenoxy)cyclohexyl)-5-(4-((3aR,5R,6aS)-2-(2-(2,6-dioxopiperidin-3-yl)-6-fluoro-1,3-dioxoisoindolin-5-yl)octahydrocyclopenta[c]pyrrol-5-yl)piperazin-1-yl)pyrazine-2-carboxamide]: the “% degradation” value is “C (49%-25%)”.
The molecule `N#Cc1ccc(O[C@H]2CC[C@H](NC(=O)c3cnc(N4CCC5(CCN(C6CCN(c7cc8c(cc7F)C(=O)N(C7CCC(=O)NC7=O)C8=O)CC6)C5)C4)cn3)CC2)cc1Cl` (stereo partly shown) [Compound 167, N-((1r,4r)-4-(3-chloro-4-cyanophenoxy)cyclohexyl)-5-(7-(1-(2-(2,6-dioxopiperidin-3-yl)-6-fluoro-1,3-dioxoisoindolin-5-yl)piperidine-4-yl)-2,7-diazaspiro[4.4]nonan-2-yl)pyrazine-2-carboxamide] yielded an inhibition at 0.1 µM of 50 to 79%.
